According to patent publication US8841413B2, “Antidiabetic compounds” (Cadila Healthcare Limited, priority 2006, dated 2014):
Read-outs that look alike come from different tables or passages of the source. Each block holds one compound with its values, some of them ahead of it.

Experiments:
Human GLP-1 receptor = biological target: T1, Human GLP-1 receptor (Homo sapiens, UniProt P43220); assay type: cell-based; conditions: for activity in human GLP-1 receptor assay (in words): in vitro, dipeptides, FIG. 3
T1 construct: The full-length cDNA was cloned in pcDNA3.1(+); expressed in transfected cells
T1 sequence (P43220 24-463): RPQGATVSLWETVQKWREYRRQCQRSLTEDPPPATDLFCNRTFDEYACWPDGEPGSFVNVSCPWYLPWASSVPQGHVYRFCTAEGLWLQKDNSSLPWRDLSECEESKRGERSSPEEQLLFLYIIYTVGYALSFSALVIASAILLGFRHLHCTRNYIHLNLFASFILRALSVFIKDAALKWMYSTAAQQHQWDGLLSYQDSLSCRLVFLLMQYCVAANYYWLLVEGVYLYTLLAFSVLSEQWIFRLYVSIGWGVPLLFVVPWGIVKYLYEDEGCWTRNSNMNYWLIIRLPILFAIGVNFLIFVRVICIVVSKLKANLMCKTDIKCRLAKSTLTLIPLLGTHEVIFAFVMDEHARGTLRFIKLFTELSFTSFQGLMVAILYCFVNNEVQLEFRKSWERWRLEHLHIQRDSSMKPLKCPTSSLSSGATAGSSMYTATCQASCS
Procedure: The novel peptidomimetics were screened for Human GLP-1 receptor (HGLP-1 R) agonist activity (in vitro), using the cAMP cell-based assay, in stably transfected CHO/human GLP1R cells. […] CHO cells were grown in Ham's F12 medium containing L-Glutamine (2 mM), HEPES (25 mM), NaHCO3 (1.1 g/L) and supplemented with NewBorn Calf Serum (NBCS; 10%), Penicillin (50 U/ml (v/v)) and Streptomycin (50 ug/ml (v/v)). Cells were split every 3 days 1:8.
The cDNA encoding the human GLP-1 receptor was isolated by RT-PCR according to standard protocol. The full-length cDNA was cloned in pcDNA3.1(+). […] Clones expressing the receptor were generated by G418 (800 μg/ml active, Sigma) selection. The stable clones were thereafter maintained at 500 ug/ml (G418). The selected clone was used between passages 9-25 for cAMP assays.
The trypsin was inactivated using Ham's F12 medium containing 10% NBCS and the cells were suspended in 2 ml of complete medium. […] The medium was aspirated off from the 12 well plate and the cells were washed once using Ham's F12 (plain). […] The cells were incubated with the test compounds for 30 min in humidified atmosphere and 37° C. After the incubation, the medium was removed and cells were washed once with plain Ham's F12. Subsequently, the cells were lysed by adding 500 ul of ice cold 0.1 N HCl to each well and shaking for 30 minutes at 200 rpm. […] The total cAMP was estimated from the sample according to the manufacturer's protocol using Cyclic AMP immunoassay kit (R&D systems, Minneapolis. MN). The remaining supernatant is used to determine the protein concentration using micro BCA (Sigma). Data is calculated as percent of control (Vehicle: water) and expressed as Mean±SD.

DPP IV = DPP IV (Homo sapiens, UniProt P27487); assay: Stability against DPP IV enzyme; assay type: in vitro ADME; conditions: 2 μM, 37° C.
Chain of DPP IV (P27487 whole entry, species assumed): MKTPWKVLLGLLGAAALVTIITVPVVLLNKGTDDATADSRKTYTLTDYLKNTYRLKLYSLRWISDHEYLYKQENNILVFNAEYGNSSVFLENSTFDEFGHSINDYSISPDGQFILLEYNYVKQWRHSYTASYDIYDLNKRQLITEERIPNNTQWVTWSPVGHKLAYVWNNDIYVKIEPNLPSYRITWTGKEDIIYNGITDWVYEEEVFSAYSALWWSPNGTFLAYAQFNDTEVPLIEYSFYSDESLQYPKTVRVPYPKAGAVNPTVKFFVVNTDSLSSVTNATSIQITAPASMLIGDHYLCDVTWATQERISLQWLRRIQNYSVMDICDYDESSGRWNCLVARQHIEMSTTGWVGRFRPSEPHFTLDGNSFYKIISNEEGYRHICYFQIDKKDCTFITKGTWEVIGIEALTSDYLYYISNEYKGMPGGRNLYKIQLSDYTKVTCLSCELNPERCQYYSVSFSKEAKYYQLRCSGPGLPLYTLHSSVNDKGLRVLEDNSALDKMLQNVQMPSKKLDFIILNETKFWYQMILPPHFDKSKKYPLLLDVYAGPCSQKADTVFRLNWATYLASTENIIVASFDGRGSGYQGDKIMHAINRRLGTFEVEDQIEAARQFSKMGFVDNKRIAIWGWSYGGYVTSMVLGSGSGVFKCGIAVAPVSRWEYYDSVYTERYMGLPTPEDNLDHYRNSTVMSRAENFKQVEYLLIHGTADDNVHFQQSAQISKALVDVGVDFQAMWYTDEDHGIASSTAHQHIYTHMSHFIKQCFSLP
Procedure: (§1) Reactions were terminated by the addition of TFA/H2O (15 mL, 10% (v/v)). […] The column was equilibrated with TFA/H2O, at a flow rate of 1 mL/min. […] The absorbance was monitored at 206 nm using UV detector and peaks were collected manually prior to ESI-MS analysis.

[1] = Stability against liver microsomes; assay type: in vitro ADME, human; conditions: 2 μM, 37° C.
Procedure: as §1

[2] = Stability in simulated intestinal fluid; assay type: in vitro ADME; conditions: 2 μM, 37° C., pH 7.5
Procedure: as §1

[3] = Stability in human plasma; assay type: in vitro ADME; conditions: 2 μM, 37° C.
Procedure: as §1

[4] = Stability in simulated gastric fluid; assay type: in vitro ADME; conditions: 2 μM, 37° C., pH 1.5, pepsin
Procedure: as §1

human glucagon receptor = biological target: T2, human glucagon receptor (Homo sapiens, UniProt P47871); assay: In vitro human glucagon antagonist activity (inhibition of cAMP production), CHO/human glucagon R cells; assay type: cell-based; conditions: in vitro, FIG. 3 / FIG. 4
T2 construct: The full-length cDNA was cloned in pcDNA3.1(Invitrogen); expressed in transfected cells
T2 sequence (P47871 26-477): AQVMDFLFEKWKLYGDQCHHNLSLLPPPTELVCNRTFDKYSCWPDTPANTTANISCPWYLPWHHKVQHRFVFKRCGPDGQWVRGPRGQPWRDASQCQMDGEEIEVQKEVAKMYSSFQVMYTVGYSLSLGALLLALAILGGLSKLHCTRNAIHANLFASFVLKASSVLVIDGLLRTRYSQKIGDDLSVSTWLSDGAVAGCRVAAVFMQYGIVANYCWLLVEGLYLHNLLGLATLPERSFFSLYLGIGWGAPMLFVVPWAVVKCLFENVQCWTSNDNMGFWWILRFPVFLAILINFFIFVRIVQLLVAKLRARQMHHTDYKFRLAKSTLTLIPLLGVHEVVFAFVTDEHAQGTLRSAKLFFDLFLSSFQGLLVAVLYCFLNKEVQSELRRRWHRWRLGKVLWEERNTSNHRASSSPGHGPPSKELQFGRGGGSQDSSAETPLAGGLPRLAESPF
Procedure: CHO cells were grown in Ham's F12 medium containing L-Glutamine (2 mM), HEPES (25 mM), NaHCO3 (1.1 g/L) and supplemented with newborn Calf Serum (NBCS; 10%), Penicillin (50 U/ml (v/v)) and Streptomycin (50 ug/ml (v/v)). Cells were split every 3 days 1:8.
The full-length cDNA was cloned in pcDNA3.1(Invitrogen). […] Clones expressing the receptor were generated by G418 (800 μg/ml active, Sigma) selection. The stable clones were thereafter maintained at 500 ug/ml (G418). The selected clone was used between passages 9-25 for cAMP assays.
The trypsin was inactivated using Ham's F12 medium containing 10% NBCS and the cells were suspended in 2 ml of complete medium. […] The medium was aspirated off from the 12 well plate and the cells were washed once using Ham's F12 (plain). […] After the incubation; the medium was removed and cells were washed once with plain Ham's F12. Subsequently, the cells were lysed by adding 500 ul of ice cold 0.1 N HCl to each well and shaking for 30 minutes at 200 rpm. The cells were then scrapped, the lysate was collected in micro centrifuge tubes and centrifuged at 12000 rpm for 10 min to remove the debris. 300 ul of supernatant from each micro-centrifuge tube was then removed into a glass tube and dried under N2 for 30 min, for cAMP estimation. The total cAMP was estimated from the sample according to the manufacturer's protocol using Cyclic AMP immunoassay kit (R&D systems, Minneapolis: MN). The remaining supernatant is used to determine the protein concentration using micro BCA (Sigma). Data is calculated as percent of control (Vehicle: water) and expressed as Mean+SD.

C57BL/6J mice = assay: Acute single dose 120-min time-course experiment, in vivo glucose reduction in C57BL/6J mice; parameters: unit not given here; conditions: male C57BL/6J mice, Mean ± SEM
Procedure: All the animal experiments were carried out according to the internationally valid guidelines following approval by the ‘Zydus Research Center animal ethical committee’. […] Two days prior to the study, the animals were randomised and divided into 5 groups (n=6), based upon their fed glucose levels. On the day of experiment, food was withdrawn from all the cages, water was given ad-libitum and were kept for overnight fasting. Vehicle (normal saline)/test/standard compounds were administered intraperitoneally (i.p.) or orally, on a body weight basis. […] Blood samples were centrifuged and the separated serum was immediately subjected for the glucose estimation. Serum for insulin estimation was stored at −70° C. until used for the insulin estimation. The glucose estimation was carried out with DPEC-GOD/POD method (Ranbaxy Fine Chemicals Limited, Diagnostic division, India), using Spectramax-190, in 96-microwell plate reader (Molecular devices Corporation, Sunnyvale, Calif.). […] The AUC and BCAUC obtained from graphs were analyzed for one way ANOVA, followed by Dunnett's post test, using Graph Pad prism software. Furthermore, the insulin estimation was carried out using rat/mouse insulin ELISA kit (Linco research, Mo. USA).

Compound: CCc1cc(OC)ccc1-c1ccc(CC(NC(=O)[C@H](CC(=O)O)NC(=O)[C@H](CO)NC(=O)[C@@H](NC(=O)C(C)(Cc2ccccc2F)NC(=O)[C@@H](NC(=O)CNC(=O)[C@H](CCC(N)=O)NC(=O)C2(NC(=O)[C@@H](N)Cc3c[nH]cn3)CC2)[C@@H](C)O)[C@@H](C)O)C(=O)NC(Cc2ccc(-c3ccccc3C)cc2)C(N)=O)cc1 (single isomer, unassigned) [Seq. ID. No. 33, H-(ACP)-QGT-(α-Me-2F-Phe)-TSD-Bip(OMe)-Bip(2Me)]
- blood glucose level (C57BL/6J mice; 10 nM/kg, i.p, 0 min): 181 ± 2.5
- blood glucose level (C57BL/6J mice; 10 nM/kg, i.p, 30 min): 111 ± 3.4
- blood glucose level (C57BL/6J mice; 10 nM/kg, i.p, 60 min): 113 ± 3.1
- blood glucose level (C57BL/6J mice; 10 nM/kg, i.p, 120 min): 110 ± 1.8
- blood glucose level (C57BL/6J mice; 2 μM/kg, oral, 0 min): 182 ± 2.5
- blood glucose level (C57BL/6J mice; 2 μM/kg, oral, 30 min): 116 ± 3.1
- blood glucose level (C57BL/6J mice; 2 μM/kg, oral, 60 min): 113 ± 4.1
- blood glucose level (C57BL/6J mice; 2 μM/kg, oral, 120 min): 110 ± 2.8

Compound: CCc1cc(OC)ccc1-c1ccc(CC(NC(=O)[C@H](CC(=O)O)NC(=O)[C@H](CO)NC(=O)[C@@H](NC(=O)[C@H](Cc2ccccc2)NC(=O)[C@@H](NC(=O)CNC(=O)[C@H](CCC(N)=O)NC(=O)[C@H](C)NC(=O)[C@@H](N)Cc2c[nH]cn2)[C@@H](C)O)[C@@H](C)O)C(=O)NC(Cc2ccc(-c3ccccc3C(F)(F)F)cc2)C(N)=O)cc1 (single isomer, unassigned) [Seq. ID. No. 12]
- blood glucose level (C57BL/6J mice; 50 nM/kg, i.p, 0 min): 184 ± 5.0
- blood glucose level (C57BL/6J mice; 50 nM/kg, i.p, 30 min): 122 ± 3.8
- blood glucose level (C57BL/6J mice; 50 nM/kg, i.p, 60 min): 128 ± 2.1
- blood glucose level (C57BL/6J mice; 50 nM/kg, i.p, 120 min): 149 ± 2.3

Compound: CCc1cc(OC)ccc1-c1ccc(CC(NC(=O)[C@H](CC(=O)O)NC(=O)[C@H](CO)NC(=O)[C@@H](NC(=O)C(C)(Cc2ccccc2F)NC(=O)[C@@H](NC(=O)CNC(=O)[C@H](CCC(N)=O)NC(=O)[C@H](CO)NC(=O)[C@@H](N)Cc2c[nH]cn2)[C@@H](C)O)[C@@H](C)O)C(=O)NC(Cc2ccc(-c3ccccc3F)cc2)C(N)=O)cc1 (single isomer, unassigned) [Seq. ID. No. 23, HSQGT-(α-Me-2F-Phe)-TSD-Bip(OMe)-Bip(2F)]
- blood glucose level (C57BL/6J mice; 20 nM/kg, i.p, 0 min): 180 ± 3.1
- blood glucose level (C57BL/6J mice; 20 nM/kg, i.p, 30 min): 122 ± 3.9
- blood glucose level (C57BL/6J mice; 20 nM/kg, i.p, 60 min): 129 ± 2.2
- blood glucose level (C57BL/6J mice; 20 nM/kg, i.p, 120 min): 140 ± 2.9

Compound: CCc1cc(OC)ccc1-c1ccc(CC(NC(=O)[C@H](CC(=O)O)NC(=O)[C@H](CO)NC(=O)[C@@H](NC(=O)[C@H](Cc2ccccc2)NC(=O)[C@@H](NC(=O)CNC(=O)[C@H](CCC(N)=O)NC(=O)C2(NC(=O)[C@@H](N)Cc3c[nH]cn3)CC2)[C@@H](C)O)[C@@H](C)O)C(=O)NC(Cc2ccc(-c3ccccc3F)cc2)C(N)=O)cc1 (single isomer, unassigned) [Seq. ID. No. 19, H-(ACP)-QGTFTSD-Bip(OMe)-Bip(2F)]
- blood glucose level (C57BL/6J mice; 30 nM/kg, i.p, 0 min): 180 ± 3.2
- blood glucose level (C57BL/6J mice; 30 nM/kg, i.p, 30 min): 119 ± 3.2
- blood glucose level (C57BL/6J mice; 30 nM/kg, i.p, 60 min): 117 ± 3.1
- blood glucose level (C57BL/6J mice; 30 nM/kg, i.p, 120 min): 118 ± 1.8

The remaining lines, values ahead:

- Human GLP-1 R activity (cAMP release), % activity with respect to control (Human GLP-1 receptor; 1 nM test compound): 99 ± 0.12%
- Human GLP-1 R activity (cAMP release), % activity with respect to control (Human GLP-1 receptor; 10 nM test compound): 99 ± 0.15%
- Human GLP-1 R activity (cAMP release), % activity with respect to control (Human GLP-1 receptor; 100 nM test compound): 99 ± 0.18%
- Human GLP-1 R activity (cAMP release), % activity with respect to control (Human GLP-1 receptor; 1 μM test compound): 99 ± 0.03%
- Human GLP-1 R activity (cAMP release), % activity with respect to control (Human GLP-1 receptor; 10 μM test compound): 99 ± 0.09%
- % degradation in 24 h when incubated with DPP-IV enzyme (DPP IV; 24 h): 00%
- half-life (DPP IV; read-out: half-life (t1/2) with DPP-IV enzyme): > 24 h
- half-life (t1/2) with liver microsomes [1]: (5) h
- % degradation in 24 h when incubated with liver microsomes ([1]; 24 h): 35%
- % degradation in 24 h when incubated with simulated intestinal fluid ([2]; 24 h): 00%
- half-life ([2]; simulated gi fluid, read-out: half-life (t1/2) in simulated intestinal fluid): > 24 h
- % degradation in 24 h when incubated with human plasma ([3]; 24 h): 00%
- half-life ([3]; human, plasma, read-out: half-life (t1/2) in human plasma): > 24 h
- % degradation in 24 h when incubated with simulated gastric fluid ([4]; 24 h): 00%
- half-life ([4]; simulated gi fluid, read-out: half-life (t1/2) in simulated gastric fluid): > 24 h
Compound: CCc1cc(OC)ccc1-c1ccc(CC(NC(=O)[C@H](CC(=O)O)NC(=O)[C@H](CO)NC(=O)[C@@H](NC(=O)C(C)(Cc2ccccc2F)NC(=O)[C@@H](NC(=O)CNC(=O)[C@H](CCC(N)=O)NC(=O)C(C)(C)NC(=O)[C@@H](N)Cc2c[nH]cn2)[C@@H](C)O)[C@@H](C)O)C(=O)NC(Cc2ccc(-c3ccccc3C)cc2)C(N)=O)cc1 (single isomer, unassigned) [compound 29]

- activity in human GLP-1 receptor assay (in words) (Human GLP-1 receptor): antagonistic activity
- activity in human Glucagon receptor assay (in words) (human glucagon receptor): antagonistic activity
Compound: Bip(OMe)-Bip(2CF3)

- activity in human GLP-1 receptor assay (in words) (Human GLP-1 receptor): antagonistic activity
- activity in human Glucagon receptor assay (in words) (human glucagon receptor): antagonistic activity
Compound: Bip(OMe)-Bip(Pyr)

- activity in human GLP-1 receptor assay (in words) (Human GLP-1 receptor): antagonistic activity
- activity in human Glucagon receptor assay (in words) (human glucagon receptor): antagonistic activity
Compound: Bip(OMe)-Bip(2F)

- activity in human GLP-1 receptor assay (in words) (Human GLP-1 receptor): antagonistic activity
- activity in human Glucagon receptor assay (in words) (human glucagon receptor): antagonistic activity
Compound: Bip(OMe)-Bip(2Me)
